Experimental data: patent US6911446B2, “Methods of modulating serine/threonine protein kinase function with quinazoline-based compounds” (Sugen, Inc., priority 1997, dated 2005)

Key:
[1] = system: NIH-3T3 cells expressing RAF-1; experiment: Growth of NIH-3T3 cells expressing RAF-1; type: cell-based; details: Mus musculus, NIH3T3; growth of NIH-3T3 cells overexpressing RAF
From the text: The following assay measures growth rates for NIH-3T3 cells expressing RAF-1. The protocol for the assay is described in detail in PCT Publication WO9640116, filed Jun. 5, 1996, by Tang et al., and entitled “Indolinone Compounds for the Treatment of Disease,” incorporated herein by reference in its entirety, including any drawings.

[2] = system: 3T3/H-Ras (NIH 3T3 clone 7 cells expressing genomic fragment of oncogenic H-Ras); experiment: Growth of NIH 3T3 cells over expressing H-Ras (SRB); type: cell-based; details: Mus musculus, NIH3T3, 72 h, growth of 3T3/H-Ras cells, 3 days with compound
Description: The following assay measures growth rates for NIH-3T3 cells expressing RAS. The purpose of the assay is to determine the effects of compounds on the growth of NIH 3T3 cells over expressing H-Ras.
• 96-well flat bottom sterile plates • 96-well round bottom sterile plates • sterile 25 mL or 100 mL reservoir • pipets, multi-channel pipetman • sterile pipet tips • sterile 15 mL and 50 mL tubes Reagents • 0.4% SRB in 1% acetic acid • 10 mM Tris base • 10% TCA • 1% acetic acid • sterile DMSO (Sigma) • compound in DMSO (100 mM or less stock solution) • Trypsin-EDTA (GIBCO BRL) Cell Line: 3T3/H-Ras (NIH 3T3 clone 7 cells expressing genomic fragment of oncogenic H-Ras).
The cells can be constructed using the following protocol: • 1. Subclone a gene fragment encoding Ras into a commercially available vector that will stably transfect NIH-3T3 cells. The fragment is from the genomic transforming allele of cHa-ras. • 2. Transfect NIH-3T3 cells with the subcloned vector by a calcium phosphate method. Select cells expressing the Ras construct in 2% serum in DMEM. Visible foci are observed after 2 weeks. Pool the transformed cells to generate a stably transformed cell line. Growth Medium: 2% calf serum/DMEM+2 mM glutamine, Pen/Strep Protocol: Day 0: Cell Plating:
This part of assay is carried out in a laminar flow hood. • 1. Trypsinize cells. Transfer 200 μL of cell suspension to 10 mL of isotone. Count cells with a Coulter Counter. • 2. Dilute cells in growth medium to 60,000 cell/mL. Transfer 100 μL of cells to each well in a 96-well flat bottom plate to give 6000 cells/well. • 3. Use half of plate (4 rows) for each comound and quadruplicate wells for each compound concentration, and a set of 4 wells for medium control. • 4. Gently shake plates to allow for uniform attachment of the cells. • 5. Incubate the plates at 37° C. in a 10% CO2 incubator. Day 1: Addition of Compound:
This part of assay is carried out in a laminar flow hood. • 1. In a 96-well round bottom plate, add 120 μL of growth medium containing 2×final % DMSO found in highest screening concentration of compound to columns 1 to 11. For example, if the highest concentration is […], and this is made from a 100 mM stock, 1×DMSO is 0.1%, so 2×DMSO is 0.2%. This plate is used to titrate out the compound, 4 rows per compound. • 2. In a sterile 15 mL tube, make a 2×solution of the highest screening concentration of compound in growth medium plus 2×DMSO. 1 mL per cell line is needed. The starting concentration of the compound is usually 100 μM but this concentration may vary depending upon the solubility of the compound. • 3. Transfer 240 μL of the 2×starting compound solution to qudruplicate wells in column 12 of the 96-well round bottom plate. Do 1:2 serial dilutions across the plate from right to left by transferring […] from column 12 to column 11, column 11 to 10 and so on through column 2. Transfer 100 μL of compound dilutions, and 100 μL of medium in column 1, onto 100 μL medium on cells in corresponding wells of 96-well flat bottom plate. Total volume per well should be 200 μL. • 4. Return the plate to the incubator and incubate for 3 days. Day 4: Development of Assay
This party of assay is carried out on the bench. • 1. Aspirate or pour off medium. Add 200 μL cold 10% TCA to each well to fix cells. Incubate plate for at least 60 min. at 4° C. • 2. Discard TCA and rinse wells 5 times with tap water. Dry plates upside down on paper towels. • 3. Stain cells with 100 μL/well 0.4% SRB for 10 min. • 4. Pour of SRB and rinse wells 5 times with 1% acetic acid. Dry plates completely upside down on paper towels. • 5. Solubilize dye with 100 μL/well 10 mM Tris base for 5-10 min. on shaker. • 6. Read plates on Dynatech ELISA Plate REader at 570 nm with reference at 630 nm.

Structure (SMILES) | IC50 [1] [µM] | IC50 [2] [µM]
Nc1nc(N)c2c(Oc3ccccc3)cccc2n1 [Compound A-1, 2,4-Diamino-5-phenoxyquinazoline] | 0.16 | 0.85
COc1ccc(Oc2cccc3nc(N)nc(N)c23)cc1 [Compound A-6, 2,4-Diamino-5-(4-methoxyphenoxy)quinazoline] | – | > 100
Nc1nc(N)c2c(Oc3ccc(F)cc3)cccc2n1 [Compound A-7, 2,4-Diamino-5-(4-fluorophenoxy)quinazoline] | 1.7 | > 100
CC(C)(C)c1ccc(Oc2cccc3nc(N)nc(N)c23)cc1 [Compound A-8, 2,4-Diamino-5-(4-tert-butylphenoxy)quinazoline] | – | 22.3
Cc1ccc(Oc2cccc3nc(N)nc(N)c23)cc1 [Compound A-9, 2,4-Diamino-5-(4-methylphenoxy)quinazoline] | 5.9 | 20.4
COc1ccccc1Oc1cccc2nc(N)nc(N)c12 [Compound A-22, 2,4-Diamino-5-(2-methoxyphenoxy)quinazoline] | – | 0.4
COc1cccc(Oc2cccc3nc(N)nc(N)c23)c1 [Compound A-23, 2,4-Diamino-5-(3-methoxyphenoxy)quinazoline] | – | 0.6
Nc1ncnc2cccc(Oc3ccc(OCc4ccccc4)cc3)c12 [Compound A-28, 4-Amino-5-(4-benzyloxyphenoxy)quinazoline] | – | 6
